Results on one compound are retold here after patent publication US8367648B2, “Substituted 16,17-annellated steroid compounds for use in womens healthcare” (MSD OSS B.V., priority 2009, dated 2013).

Read-outs that look alike come from different tables or passages of the source. Where only a bound is given, the exact number is not on record here.

As a reminder, the IC50 is the concentration needed to halve the response being measured. Usually EC50 stands for the midpoint of the concentration-response curve.

In data set [1] the target is T1, ERβ (Homo sapiens, UniProt Q92731). The data set is described as follows: In vitro nuclear receptor profile, ERβ antagonism. The data set is classed as cell-based.
T1 sequence (Q92731 whole entry): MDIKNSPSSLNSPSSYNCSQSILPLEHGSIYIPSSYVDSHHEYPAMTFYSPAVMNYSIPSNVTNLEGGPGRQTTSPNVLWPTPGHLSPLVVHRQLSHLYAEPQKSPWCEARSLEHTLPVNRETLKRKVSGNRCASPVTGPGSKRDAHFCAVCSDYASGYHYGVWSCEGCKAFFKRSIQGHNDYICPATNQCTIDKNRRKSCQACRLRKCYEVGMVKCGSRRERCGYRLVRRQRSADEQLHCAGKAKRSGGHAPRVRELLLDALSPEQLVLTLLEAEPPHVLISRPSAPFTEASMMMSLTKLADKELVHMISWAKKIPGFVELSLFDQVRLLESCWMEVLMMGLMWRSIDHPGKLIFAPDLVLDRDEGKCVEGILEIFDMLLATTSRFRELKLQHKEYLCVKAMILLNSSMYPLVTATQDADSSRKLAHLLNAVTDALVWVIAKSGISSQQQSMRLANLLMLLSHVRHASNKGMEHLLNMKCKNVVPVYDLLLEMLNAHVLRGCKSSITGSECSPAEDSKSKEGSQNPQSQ
Data set [2] addresses T2, progesterone receptor B (PR-B) (Homo sapiens, UniProt P06401).
T2 sequence (P06401 1-933): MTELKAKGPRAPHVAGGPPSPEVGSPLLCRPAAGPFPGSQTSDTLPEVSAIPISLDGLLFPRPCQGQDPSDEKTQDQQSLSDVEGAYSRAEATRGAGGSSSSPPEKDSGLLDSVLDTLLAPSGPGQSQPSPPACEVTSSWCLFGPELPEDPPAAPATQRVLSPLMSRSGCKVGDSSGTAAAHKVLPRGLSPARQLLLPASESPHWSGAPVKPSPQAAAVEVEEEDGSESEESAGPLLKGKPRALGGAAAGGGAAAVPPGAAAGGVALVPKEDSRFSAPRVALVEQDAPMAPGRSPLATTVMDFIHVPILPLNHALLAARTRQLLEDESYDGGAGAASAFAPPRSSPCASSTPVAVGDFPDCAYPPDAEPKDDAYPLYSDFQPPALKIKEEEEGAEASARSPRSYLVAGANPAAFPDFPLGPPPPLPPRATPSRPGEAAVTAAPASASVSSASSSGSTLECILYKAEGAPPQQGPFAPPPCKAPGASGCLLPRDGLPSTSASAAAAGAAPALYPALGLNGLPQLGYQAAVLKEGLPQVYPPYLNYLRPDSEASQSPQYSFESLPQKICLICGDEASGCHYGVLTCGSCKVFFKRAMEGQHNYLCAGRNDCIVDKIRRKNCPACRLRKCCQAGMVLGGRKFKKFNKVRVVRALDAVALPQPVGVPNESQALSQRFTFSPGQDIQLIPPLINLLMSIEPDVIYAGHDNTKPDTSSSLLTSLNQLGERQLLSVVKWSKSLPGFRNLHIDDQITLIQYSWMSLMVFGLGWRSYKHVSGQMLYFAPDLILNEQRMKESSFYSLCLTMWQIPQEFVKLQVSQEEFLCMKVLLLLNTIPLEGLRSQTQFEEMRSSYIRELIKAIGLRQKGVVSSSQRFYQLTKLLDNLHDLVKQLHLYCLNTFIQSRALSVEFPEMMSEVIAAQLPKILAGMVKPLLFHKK
The data set is described as follows: In vitro nuclear receptor profile, PR-B agonism. The data set is classed as cell-based. The note with it: agonist mode; read-out: PR-B ago EC50.

In data set [3] the target is T2, progesterone receptor B (PR-B). Description: In vitro nuclear receptor profile, PR-B antagonism. It is filed as cell-based.
The target of data set [4] is T3, PR-A (Homo sapiens, UniProt P06401).
T3 sequence (P06401 1-769 isoform P06401-2): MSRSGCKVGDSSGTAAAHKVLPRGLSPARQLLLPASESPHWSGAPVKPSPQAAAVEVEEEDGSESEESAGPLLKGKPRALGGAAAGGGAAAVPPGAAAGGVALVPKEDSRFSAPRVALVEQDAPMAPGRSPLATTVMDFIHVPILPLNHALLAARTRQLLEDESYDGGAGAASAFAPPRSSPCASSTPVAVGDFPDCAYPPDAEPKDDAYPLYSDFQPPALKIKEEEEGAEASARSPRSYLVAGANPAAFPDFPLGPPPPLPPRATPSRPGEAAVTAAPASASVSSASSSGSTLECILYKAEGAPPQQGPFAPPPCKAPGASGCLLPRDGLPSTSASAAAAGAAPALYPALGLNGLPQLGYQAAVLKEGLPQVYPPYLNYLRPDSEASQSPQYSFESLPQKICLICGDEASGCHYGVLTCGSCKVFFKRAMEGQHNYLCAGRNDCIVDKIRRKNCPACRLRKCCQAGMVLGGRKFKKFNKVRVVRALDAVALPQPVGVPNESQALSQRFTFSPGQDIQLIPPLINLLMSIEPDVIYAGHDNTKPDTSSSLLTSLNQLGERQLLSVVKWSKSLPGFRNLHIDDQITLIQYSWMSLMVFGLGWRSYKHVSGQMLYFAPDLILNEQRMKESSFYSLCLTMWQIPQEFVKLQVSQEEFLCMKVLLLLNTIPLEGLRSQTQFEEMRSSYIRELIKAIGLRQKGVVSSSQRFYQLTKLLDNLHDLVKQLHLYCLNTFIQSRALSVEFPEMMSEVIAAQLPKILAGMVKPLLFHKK
Description: In vitro nuclear receptor profile, PR-A agonism. It is filed as cell-based. The note with it: agonist mode; read-out: PR-A ago EC50.

The target in data set [5] is T4, ERα (Homo sapiens, UniProt P03372).
T4 sequence (P03372 1-595): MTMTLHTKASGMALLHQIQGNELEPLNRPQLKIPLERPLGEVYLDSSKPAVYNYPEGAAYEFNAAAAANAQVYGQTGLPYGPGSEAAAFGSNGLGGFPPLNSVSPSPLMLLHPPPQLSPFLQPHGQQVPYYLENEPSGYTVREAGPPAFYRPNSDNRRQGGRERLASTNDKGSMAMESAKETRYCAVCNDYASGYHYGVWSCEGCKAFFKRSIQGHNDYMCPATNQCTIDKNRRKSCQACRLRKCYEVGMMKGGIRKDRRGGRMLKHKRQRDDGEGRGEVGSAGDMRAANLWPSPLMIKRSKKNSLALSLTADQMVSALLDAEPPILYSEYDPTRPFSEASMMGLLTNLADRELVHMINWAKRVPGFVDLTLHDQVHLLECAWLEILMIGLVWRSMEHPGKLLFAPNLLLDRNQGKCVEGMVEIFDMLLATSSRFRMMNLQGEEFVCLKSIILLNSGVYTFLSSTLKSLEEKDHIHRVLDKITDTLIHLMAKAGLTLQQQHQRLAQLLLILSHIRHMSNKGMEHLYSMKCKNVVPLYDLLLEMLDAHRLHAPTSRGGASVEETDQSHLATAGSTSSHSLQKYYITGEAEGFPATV
The data set is described as follows: In vitro nuclear receptor profile, ERα antagonism. The note with it: antagonist mode; read-out: ERα ant IC50. The data set is classed as cell-based.

The target of data set [6] is T4, ERα. Description: In vitro nuclear receptor profile, ERα agonism. It is filed as cell-based.
The conditions of data set [7]: female, rat, in vivo, po.
Data set [8] deals with T1, ERβ. The data set is described as follows: In vitro nuclear receptor profile, ERβ agonism. The data set is classed as cell-based. The conditions noted are these: agonist mode; read-out: ERβ ago EC50.
The target in data set [9] is T3, PR-A. Description: In vitro nuclear receptor profile, PR-A antagonism. It is filed as cell-based.

Consider `CCC[C@@H]1Cc2cc(O)ccc2[C@H]2CC[C@@]3(C)[C@@H](C[C@H]4CC[C@H](O)C[C@]43O)[C@H]12` [Org 41621, (7α,16β,17α,22β)-7-propyl-16,24-cyclo-19,21-dinorchola-1,3,5(10)-triene-3,17,22-triol, reference compound], for which the ERβ ant anteff in data set [1] (antagonist efficacy) turned out to be 0.89. For the same compound, the IC50 was 3.8 nM in data set [1] (antagonist mode, read-out: ERβ ant IC50); 20.8 nM in data set [3] (antagonist mode, read-out: PR-B ant IC50); above 1000 nM in data set [5]; 58.3 nM in [9] (antagonist mode, read-out: PR-A ant IC50). In addition, the EC50 was above 100 nM in data set [2]; above 100 nM in [4]; 0.28 nM in [6] (agonist mode, read-out: ERα ago EC50); above 100 nM in [8]. In data set [3] (antagonist efficacy), this compound came in with a PR-B ant anteff of 0.74. Moreover, in data set [6] (agonist efficacy), the ERα ago eff is reported as 0.95. Besides, the entries for the “major fetal abnormalities (ribs, humerus, scapula)” value in data set [7] (0.09 mg/kg) and in [7] (0.15 mg/kg) were 3/273 and 11/216, respectively. Also, the values for the post implantation loss in data set [7] (0.09 mg/kg) and in data set [7] (0.15 mg/kg) were 15% and 24%, respectively. For the same compound, the PR-A ant anteff in data set [9] (antagonist efficacy) was found to be 0.85.
